# Assay results reported in US20240148821A1, “PHARMACEUTICAL USE OF CYCLIC PEPTIDE COMPOUND” (CHUGAI SEIYAKU KABUSHIKI KAISHA, priority 2021, published 2024).
# Numbered stars: 1 amine (or outer) side, 2 acyl side, 3 side chain; on linkers, the order of the positions; unused ones are H or OH. Bridge positions count the residues as written; N and C are the ends. Square brackets hold non-standard residues; d marks the D form. Peptide text beside a SMILES is read from it. * marks the point of attachment. hPhe(3-Cl-4-CF3) = N[C@@H](CCc1ccc(C(F)(F)F)c(Cl)c1)C(=O)O; hPhe(3-F,4-CF3) = N[C@@H](CCc1ccc(C(F)(F)F)c(F)c1)C(=O)O; X36 = O=C([C@H](Cc1cc(F)cc(Cl)c1)N[*:1])[*:2]; NMePhe(3-Cl) = CN[C@@H](Cc1cccc(Cl)c1)C(=O)O; NMePhe(4-Cl) = CN[C@@H](Cc1ccc(Cl)cc1)C(=O)O; NMePhe(4-Me) = CN[C@@H](Cc1ccc(C)cc1)C(=O)O; NMePhe(3-F) = CN[C@@H](Cc1cccc(F)c1)C(=O)O; NMeMet(O2) = CN[C@@H](CCS(C)(=O)=O)C(=O)O; NMedβ3hAla = C[C@H](CC(=O)[*:2])N(C)[*:1]; NMeGly(cPent) = CN[C@H](C(=O)O)C1CCCC1; Phe(3-I) = N[C@@H](Cc1cccc(I)c1)C(=O)O; Phe(4-Me) = Cc1ccc(C[C@H](N)C(=O)O)cc1; NMeGly(cBu) = CN[C@H](C(=O)O)C1CCC1; NMeCha = CN[C@@H](CC1CCCCC1)C(=O)O; NMeGly(cPr) = CN[C@H](C(=O)O)C1CC1; NMeChg = CN[C@H](C(=O)O)C1CCCCC1; NMeE = CN[C@@H](CCC(=O)O)C(=O)O; NMeD = CN[C@@H](CC(=O)O)C(=O)O; NMeL = CN[C@@H](CC(C)C)C(=O)O; NEtAla = CCN[C@@H](C)C(=O)O; NMeNva = CCC[C@H](NC)C(=O)O; NMeV = CN[C@H](C(=O)O)C(C)C; Trifluoroethyl = FC(F)(F)C*; d(β3hA) = C[C@@H](N)CC(=O)O; NMeS = CN[C@@H](CO)C(=O)O; NMeA = CN[C@@H](C)C(=O)O; NMeAib = CNC(C)(C)C(=O)O; Nle = CCCC[C@H](N)C(=O)O; Piperidide = C1CCN(*)CC1; Ac5c = NC1(C(=O)O)CCCC1; Aze = O=C(O)[C@@H]1CCN1; NcPrGly = O=C(O)CNC1CC1; NEtG = CCNCC(=O)O; Sar = CNCC(=O)O
# Tested on: Human pancreatic cancer cell line AsPC-1 (G12D mutation Kras)
# Assay: AsPC-1 cell growth inhibition (AsPC-1 CGI)
# Type: cell-based
# Conditions: read-out: AsPC-1 cell growth inhibition, 50% growth inhibitory concentration (IC50 value); 96 hours, CellTiter-Glo, values classified in ranges
# Protocol: Test compounds were serially dilated with dimethyl sulfoxide, and 200 nL was then dispensed to a U-bottom 96-well plate using Labcyte Echo. […] The cell suspension was dispensed to a. plate containing a test compound at 100 μL per well and incubated at 37° C. in a 5% carbon dioxide gas incubator. 96 hours later, 80 μL of CellTiter-Glo (Promega) was added to each well and fluorescence was measured.
row,SMILES,IC50 [µM]
1,CC[C@H](C)[C@@H]1NC(=O)[C@H](CC(C)C)N(C)C(=O)C[C@@H](C(=O)N2CCCCC2)N(C)C(=O)[C@H](CCS(C)(=O)=O)N(C)C(=O)C2(CCCC2)NC(=O)[C@@H]2CCCN2C(=O)[C@H](CCc2ccc(C(F)(F)F)c(Cl)c2)NC(=O)CN(C)C(=O)[C@H](CC2CCCCC2)N(C)C(=O)CN(C)C(=O)CN(C)C1=O [Compound 162] ([NMeL]I[Sar][Sar][NMeCha][Sar][hPhe(3-Cl-4-CF3)]P[Ac5c][NMeMet(O2)][NMeD]-Piperidide; lactam N-11),> 0.5
2,CC[C@H](C)[C@@H]1NC(=O)[C@H](CC(C)C)N(C)C(=O)C[C@@H](C(=O)N2CCCCC2)N(C)C(=O)[C@H](CC(C)C)NC(=O)C(C)(C)N(C)C(=O)[C@H](Cc2ccc(C)cc2)NC(=O)[C@H](Cc2cccc(I)c2)NC(=O)CN(C)C(=O)[C@H](CC2CCCCC2)N(C)C(=O)CN(C)C(=O)CN(C)C1=O [Compound 166] ([NMeL]I[Sar][Sar][NMeCha][Sar][Phe(3-I)][Phe(4-Me)][NMeAib]L[NMeD]-Piperidide; lactam N-11),> 0.5
3,CC[C@H](C)[C@@H]1NC(=O)[C@H](CC(C)C)N(C)C(=O)C[C@@H](C(=O)N2CCCCC2)N(C)C(=O)[C@H](CC(C)C)NC(=O)C(C)(C)N(C)C(=O)[C@H](Cc2ccc(OC)cc2)NC(=O)[C@H](Cc2cccc(I)c2)NC(=O)CN(C)C(=O)[C@H](CC2CCCCC2)N(C)C(=O)[C@@H]2CCN2C(=O)[C@H](C)N(C)C1=O [Compound 169] ([NMeL]I[NMeA][Aze][NMeCha][Sar][Phe(3-I)]Y(Me)[NMeAib]L[NMeD]-Piperidide; lactam N-11),> 0.5
4,"CC[C@H](C)[C@@H]1NC(=O)[C@H](CC(C)C)N(C)C(=O)C[C@@H](C)N(C)C(=O)[C@H](CC(C)C)NC(=O)C(C)(C)N(C)C(=O)[C@H](CC(C)C)NC(=O)[C@H](CCc2ccc(C(F)(F)F)c(F)c2)NC(=O)CN(C)C(=O)[C@H](CC2CCCCC2)N(C)C(=O)[C@@H]2CCN2C(=O)CN(C)C1=O [Compound 178] (cyclo([Aze][NMeCha][Sar][hPhe(3-F,4-CF3)]L[NMeAib]L[NMedβ3hAla][NMeL]I[Sar]))",> 0.5
5,CC[C@H](C)[C@@H]1NC(=O)[C@H](CC(C)C)N(C)C(=O)C[C@@H](C(=O)N(C)C)N(C)C(=O)[C@H](C2CCCC2)N(C)C(=O)C2(CCCC2)NC(=O)[C@H](Cc2cccc(Cl)c2)N(C)C(=O)[C@H](CCc2ccc(C(F)(F)F)c(Cl)c2)NC(=O)CN(C)C(=O)[C@H](CC2CCCCC2)N(C)C(=O)[C@@H]2CCN2C(=O)[C@H](C)N(C)C1=O [Compound 179] ([NMeL]I[NMeA][Aze][NMeCha][Sar][hPhe(3-Cl-4-CF3)][NMePhe(3-Cl)][Ac5c][NMeGly(cPent)][NMeD]-NMe2; lactam N-11),> 0.5
6,CC[C@H](C)[C@@H]1NC(=O)[C@H](CC(C)C)N(C)C(=O)C[C@@H](C(=O)N2CCCCC2)N(C)C(=O)[C@H](C(C)C)N(C)C(=O)C2(CCCC2)NC(=O)[C@@H]2CCCN2C(=O)[C@H](CCc2ccc(C(F)(F)F)c(Cl)c2)NC(=O)CN(C)C(=O)[C@H](CC2CCCCC2)N(C)C(=O)[C@@H]2CCN2C(=O)[C@H](CCC(=O)NC)N(C)C1=O [Compound 180] ([NMeL]I[NMeE](NHMe)[Aze][NMeCha][Sar][hPhe(3-Cl-4-CF3)]P[Ac5c][NMeV][NMeD]-Piperidide; lactam N-11),> 0.5
7,CC[C@H](C)[C@@H]1NC(=O)[C@H](CC(C)C)N(C)C(=O)C[C@@H](C)NC(=O)[C@H](C2CCC2)N(C)C(=O)C2(CCCC2)NC(=O)[C@@H]2CCCN2C(=O)[C@H](CCc2ccc(C(F)(F)F)c(Cl)c2)NC(=O)CN(C)C(=O)[C@H](CC2CCCCC2)N(C)C(=O)CN(C)C(=O)CN(C)C1=O [Compound 183] (cyclo([Ac5c][NMeGly(cBu)][d(β3hA)][NMeL]I[Sar][Sar][NMeCha][Sar][hPhe(3-Cl-4-CF3)]P)),> 0.5
8,CC[C@H](C)[C@@H]1NC(=O)[C@H](CC(C)C)N(C)C(=O)C[C@@H](C)NC(=O)[C@H](C(C)C)N(C)C(=O)C2(CCCC2)NC(=O)[C@@H]2CCCN2C(=O)[C@H](CCc2ccc(C(F)(F)F)c(Cl)c2)NC(=O)CN(C)C(=O)[C@H](CC2CCCCC2)N(C)C(=O)CN(C)C(=O)[C@@H]2CCCN2C1=O [Compound 185] (cyclo([Ac5c][NMeV][d(β3hA)][NMeL]IP[Sar][NMeCha][Sar][hPhe(3-Cl-4-CF3)]P)),> 0.5
9,CC[C@H](C)[C@@H]1NC(=O)[C@H](C)N(C)C(=O)C[C@@H](C)NC(=O)[C@H](C2CCCC2)N(C)C(=O)C2(CCCC2)NC(=O)[C@@H]2CCCN2C(=O)[C@H](CCc2ccc(C(F)(F)F)c(Cl)c2)NC(=O)CN(C)C(=O)[C@H](Cc2cccc(Cl)c2)N(C)C(=O)[C@@H]2CCCN2C(=O)CN(C)C1=O [Compound 186] (cyclo([Ac5c][NMeGly(cPent)][d(β3hA)][NMeA]I[Sar]P[NMePhe(3-Cl)][Sar][hPhe(3-Cl-4-CF3)]P)),> 0.5
10,CCC[C@H]1C(=O)N(C)CC(=O)N[C@@H](CCc2ccc(C(F)(F)F)c(Cl)c2)C(=O)N2CCC[C@H]2C(=O)NC2(CCCC2)C(=O)N(C)[C@@H](C2CCCCC2)C(=O)N(C)[C@H](C(=O)N2CCCCC2)CC(=O)N(C)[C@@H](CC(C)C)C(=O)N[C@@H]([C@@H](C)CC)C(=O)N(C)CC(=O)N(C)CC(=O)N1C [Compound 187] ([NMeL]I[Sar][Sar][NMeNva][Sar][hPhe(3-Cl-4-CF3)]P[Ac5c][NMeChg][NMeD]-Piperidide; lactam N-11),> 0.5
11,CC[C@H](C)[C@@H]1NC(=O)[C@H](CC(C)C)N(C)C(=O)C[C@@H](C(=O)N2CCCCC2)N(C)C(=O)[C@H](CC(C)C)NC(=O)C(C)(C)N(C)C(=O)[C@H](Cc2ccc(OC)cc2)NC(=O)[C@H](Cc2cccc(I)c2)NC(=O)CN(C)C(=O)[C@H](Cc2ccc(C)cc2)N(C)C(=O)[C@@H]2CCN2C(=O)CN(C)C1=O [Compound 188] ([NMeL]I[Sar][Aze][NMePhe(4-Me)][Sar][Phe(3-I)]Y(Me)[NMeAib]L[NMeD]-Piperidide; lactam N-11),> 0.5
12,CC[C@H](C)[C@@H]1NC(=O)[C@H](CC(C)C)N(C)C(=O)C[C@@H](C(=O)N(C)C)N(C)C(=O)[C@H](C2CCCC2)N(C)C(=O)C2(CCCC2)NC(=O)[C@@H](C)NC(=O)[C@H](CCc2ccc(C(F)(F)F)c(Cl)c2)NC(=O)CN(C)C(=O)[C@H](CC2CCCCC2)N(C)C(=O)[C@@H]2CCN2C(=O)[C@H](C)N(C)C1=O [Compound 191] ([NMeL]I[NMeA][Aze][NMeCha][Sar][hPhe(3-Cl-4-CF3)][dA][Ac5c][NMeGly(cPent)][NMeD]-NMe2; lactam N-11),> 0.5
13,CC[C@H](C)[C@@H]1NC(=O)[C@H](C)N(C)C(=O)C[C@@H](C)NC(=O)[C@H](C2CCCC2)N(C)C(=O)C2(CCCC2)NC(=O)[C@@H]2CCCN2C(=O)[C@H](CCc2ccc(C(F)(F)F)c(Cl)c2)NC(=O)CN(C)C(=O)[C@H](Cc2cccc(F)c2)N(C)C(=O)[C@@H]2CCCN2C(=O)CN(C)C1=O [Compound 194] (cyclo([Ac5c][NMeGly(cPent)][d(β3hA)][NMeA]I[Sar]P[NMePhe(3-F)][Sar][hPhe(3-Cl-4-CF3)]P)),> 0.5
14,CC[C@H](C)[C@@H]1NC(=O)[C@H](C)N(CC)C(=O)C[C@@H](C)NC(=O)[C@H](C(C)C)N(C)C(=O)C2(CCCC2)NC(=O)[C@@H]2CCCN2C(=O)[C@H](CCc2ccc(C(F)(F)F)c(Cl)c2)NC(=O)CN(C)C(=O)[C@H](CC2CCCCC2)N(C)C(=O)CN(C)C(=O)CN(C)C1=O [Compound 196] (cyclo([Ac5c][NMeV][d(β3hA)][NEtAla]I[Sar][Sar][NMeCha][Sar][hPhe(3-Cl-4-CF3)]P)),> 0.5
15,CC[C@H](C)[C@@H]1NC(=O)[C@H](CC(C)C)N(C)C(=O)C[C@@H](C(=O)N2CCCCC2)N(C)C(=O)[C@H](C2CC2)N(C)C(=O)C2(CCCC2)NC(=O)[C@@H]2CCCN2C(=O)[C@H](CCc2ccc(C(F)(F)F)c(Cl)c2)NC(=O)CN(C)C(=O)[C@H](CC2CCCCC2)N(C)C(=O)CN(C)C(=O)CN(C)C1=O [Compound 197] ([NMeL]I[Sar][Sar][NMeCha][Sar][hPhe(3-Cl-4-CF3)]P[Ac5c][NMeGly(cPr)][NMeD]-Piperidide; lactam N-11),> 0.5
16,CCCC[C@@H]1NC(=O)[C@H](Cc2cc(F)cc(Cl)c2)NC(=O)CN(C)C(=O)[C@H](Cc2ccc(Cl)cc2)N(C)C(=O)CN(C)C(=O)CN(C)C(=O)[C@H]([C@@H](C)CC)NC(=O)[C@H](CC(C)C)N(C)C(=O)C[C@@H](C(=O)N2CCCCC2)N(C)C(=O)[C@H](CC(C)C)NC(=O)C(C)(C)N(C)C1=O [Compound 202] ([NMeL]I[Sar][Sar][NMePhe(4-Cl)][Sar][X36][Nle][NMeAib]L[NMeD]-Piperidide; lactam N-11),> 0.5
17,CC[C@H](C)[C@@H]1NC(=O)[C@H](CC(C)C)N(C)C(=O)C[C@@H](C)NC(=O)[C@H](C(C)C)N(C)C(=O)C2(CCCC2)NC(=O)[C@@H]2CCCN2C(=O)[C@H](CCc2ccc(C(F)(F)F)c(Cl)c2)NC(=O)CN(C2CC2)C(=O)[C@H](CC2CCCCC2)N(C)C(=O)CN(C)C(=O)CN(C)C1=O [Compound 204] (cyclo([Ac5c][NMeV][d(β3hA)][NMeL]I[Sar][Sar][NMeCha][NcPrGly][hPhe(3-Cl-4-CF3)]P)),> 0.5
18,CC[C@H](C)[C@@H]1NC(=O)[C@H](CC(C)C)N(C)C(=O)C[C@@H](C(=O)N2CCCCC2)N(C)C(=O)[C@H](COCC(F)(F)F)N(C)C(=O)C2(CCCC2)NC(=O)[C@@H]2CCCN2C(=O)[C@H](CCc2ccc(C(F)(F)F)c(Cl)c2)NC(=O)CN(C)C(=O)[C@H](CC2CCCCC2)N(C)C(=O)CN(C)C(=O)CN(C)C1=O [Compound 208] ([NMeL]I[Sar][Sar][NMeCha][Sar][hPhe(3-Cl-4-CF3)]P[Ac5c][NMeS](Trifluoroethyl)[NMeD]-Piperidide; lactam N-11),> 0.5
19,CC[C@H](C)[C@@H]1NC(=O)[C@H](CC(C)C)N(C)C(=O)C[C@@H](C)NC(=O)[C@H](C(C)C)N(C)C(=O)C2(CCCC2)NC(=O)[C@@H]2CCCN2C(=O)[C@H](CCc2ccc(C(F)(F)F)c(Cl)c2)NC(=O)CN(C)C(=O)[C@H](CC2CCCCC2)N(C)C(=O)CN(C)C(=O)CN(CC)C1=O [Compound 210] (cyclo([Ac5c][NMeV][d(β3hA)][NMeL]I[NEtG][Sar][NMeCha][Sar][hPhe(3-Cl-4-CF3)]P)),> 0.5
